Experiments:
HCV polymerase = target: T1, HCV polymerase (Hepatitis C virus genotype 1b, UniProt Q9WMX2); assay: Polymerase assay of Biological Example 1 (IC50 values of Table 3); assay type: biochemical; details: IC50 values of Table 3, polymerase assay of Biological Example 1; read-out: NS5B-enzyme3
T1 construct: (His)6 (C); made in house; host or cells: XL-1 cells (E. coli, by own knowledge)

[1] = tested on: HCV replicon I389luc-ubi-neo/NS3-3′/ET in ET (Huh-lucubineo-ET) cells; assay: Replicon assay (Biological Example 2), luciferase readout; assay type: cell-based; details: Hepatitis C virus
Procedure, shortened: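 EC50 values come from Hill fits of % inhibition of replicon-driven firefly luciferase, relative to no-compound wells. Compounds were serially diluted (10 points, 3-fold, 0.1 nM–50 μM final, 0.5% DMSO) onto ET replicon cells and read after 48 h.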

[2] = ET cells, luciferase activity 48 hours after compound

Row | SMILES | IC50 (HCV polymerase) [nM] | IC50 [1, 2] [nM] | IC50 ([1]; between 100 nM and 5.0 uM) [nM]
1 | CCC1CCCN1c1ccc(S(=O)(=O)N2CC(=O)N(c3cc(-c4ccccc4)sc3C(=O)O)[C@H](C3CCCCC3)C2)cn1 (stereo partly drawn) [Compound 154, 3-{(R)-2-Cyclohexyl-4-[6-(2-ethyl-pyrrolidin-1-yl)-pyridine-3-sulfonyl]-6-oxo-piperazin-1-yl}-5-phenyl-thiophene-2-carboxylic acid] | 3 | ≤ 100 | –
2 | CCCN(CCC)c1ccc(S(=O)(=O)N2CC(=O)N(c3cc(-c4ccccc4)sc3C(=O)O)C(C3CCCCC3)C2)cn1 (stereo not drawn) [Compound 77, 3-[2-Cyclohexyl-4-(6-dipropylamino-pyridine-3-sulfonyl)-6-oxo-piperazin-1-yl]-5-phenyl-thiophene-2-carboxylic acid] | 3 | ≤ 100 | –
3 | CC(C)(C)C#Cc1cc(N2C(=O)CN(S(=O)(=O)c3cccc(Cl)c3)C[C@H]2C2CCCCC2)c(C(=O)O)s1 [Compound 242, 3-[(R)-4-(3-Chlorobenzenesulfonyl)-2-cyclohexyl-6-oxo-piperazin-1-yl]-5-(3,3-dimethyl-but-1-ynyl)-thiophene-2-carboxylic acid] | 5 | – | 100 to 5000
4 | O=C(O)c1sc(-c2ccccc2)cc1N1C(=O)CN(S(=O)(=O)c2ccc(-c3ccc4c(c3)OCCCO4)nc2)C[C@H]1C1CCCCC1 [Compound 212, 3-{(R)-2-Cyclohexyl-4-[6-(3,4-dihydro-2H-benzo[b][1,4]dioxepin-7-yl)-pyridine-3-sulfonyl]-6-oxo-piperazin-1-yl}-5-phenyl-thiophene-2-carboxylic acid] | 2 | ≤ 100 | –
5 | CS(=O)(=O)N1CC(=O)N(c2cc(-c3ccccc3)sc2C(=O)O)C(C2CCCCC2)C1 (stereo not drawn) [Compound 26, 3-(2-Cyclohexyl-4-methanesulfonyl-6-oxo-piperazin-1-yl)-5-phenyl-thiophene-2-carboxylic acid] | 67 | – | 100 to 5000
6 | O=C(O)c1sc(-c2ccccc2)cc1N1C(=O)CN(S(=O)(=O)c2cccc(-c3ccccc3)c2)CC1C1CCCCC1 (stereo not drawn) [Compound 65, 3-[4-(Biphenyl-3-sulfonyl)-2-cyclohexyl-6-oxo-piperazin-1-yl]-5-phenyl-thiophene-2-carboxylic acid] | 45 | – | 100 to 5000
7 | O=C(O)c1sc(-c2ccc(Cl)cc2)cc1N1C(=O)CN(S(=O)(=O)c2ccc(N3C[C@H]4C[C@@H]3CO4)nc2)C[C@H]1C1CCCCC1 [Compound 274, 5-(4-Chloro-phenyl)-3-{(R)-2-cyclohexyl-4-[(1R,4R)-6-(2-oxa-5-aza-bicyclo[2.2.1]hept-5-yl)-pyridine-3-sulfonyl]-6-oxo-piperazin-1-yl}-thiophene-2-carboxylic acid] | 1 | ≤ 100 | –
8 | CC(C)(C)C#Cc1cc(N2C(=O)CNCC2C2CCCCC2)c(C(=O)O)s1 (stereo not drawn) [Compound 175, 3-(2-Cyclohexyl-6-oxo-piperazin-1-yl)-5-(3,3-dimethyl-but-1-ynyl)-thiophene-2-carboxylic acid] | > 10000 | ≥ 5000 | –
9 | O=C(O)c1sc(-c2ccccc2)cc1N1C(=O)CN(S(=O)(=O)c2ccc(Oc3ccccc3)cc2)CC1C1CCCCC1 (stereo not drawn) [Compound 51, 3-[2-Cyclohexyl-6-oxo-4-(4-phenoxy-benzenesulfonyl)-piperazin-1-yl]-5-phenyl-thiophene-2-carboxylic acid] | 11 | – | 100 to 5000
10 | O=C(O)c1sc(-c2ccccc2)cc1N1C(=O)CN(S(=O)(=O)c2ccc(N3C4CCC3CC4)nc2)CC1C1CCCCC1 (stereo not drawn) [Compound 125, 3-{4-[6-(7-Aza-bicyclo[2.2.1]hept-7-yl)-pyridine-3-sulfonyl]-2-cyclohexyl-6-oxo-piperazin-1-yl}-5-phenyl-thiophene-2-carboxylic acid] | 18 | ≤ 100 | –
11 | COc1ccc(S(=O)(=O)N2CC(=O)N(c3cc(C#CC(C)(C)C)sc3C(=O)O)[C@H](C3CCCCC3)C2)cn1 [Compound 191, 3-[(R)-2-Cyclohexyl-4-(6-methoxy-pyridine-3-sulfonyl)-6-oxo-piperazin-1-yl]-5-(3,3-dimethyl-but-1-ynyl)-thiophene-2-carboxylic acid] | 1 | ≤ 100 | –
12 | CC(C)(C)C#Cc1cc(N2C(=O)COC[C@H]2C2CCCCC2)c(C(=O)O)s1 [Compound 236, 3-((R)-3-Cyclohexyl-5-oxo-morpholin-4-yl)-5-(3,3-dimethyl-but-1-ynyl)-thiophene-2-carboxylic acid] | 3 | ≤ 100 | –
13 | Cn1ccc(S(=O)(=O)N2CC(=O)N(c3cc(C#CC(C)(C)C)sc3C(=O)O)[C@H](C3CCCCC3)C2)n1 [Compound 193, 3-[(R)-2-Cyclohexyl-4-(1-methyl-1H-pyrazole-3-sulfonyl)-6-oxo-piperazin-1-yl]-5-(3,3-dimethyl-but-1-ynyl)-thiophene-2-carboxylic acid] | 1 | ≤ 100 | –
14 | O=C(O)c1sc(-c2ccccc2)cc1N1C(=O)CN(S(=O)(=O)c2ccc(N3CC[C@H](F)C3)nc2)CC1C1CCCCC1 (stereo partly drawn) [Compound 121, 3-{2-Cyclohexyl-4-[6-((S)-3-fluoro-pyrrolidin-1-yl)-pyridine-3-sulfonyl]-6-oxo-piperazin-1-yl}-5-phenyl-thiophene-2-carboxylic acid] | 7 | ≤ 100 | –
15 | CC(C)Nc1ccc(S(=O)(=O)N2CC(=O)N(c3cc(-c4ccccc4)sc3C(=O)O)C(C3CCCCC3)C2)cn1 (stereo not drawn) [Compound 85, 3-[2-Cyclohexyl-4-(6-isopropylamino-pyridine-3-sulfonyl)-6-oxo-piperazin-1-yl]-5-phenyl-thiophene-2-carboxylic acid] | 2 | ≤ 100 | –
16 | O=C(O)c1sc(-c2ccccc2)cc1N1C(=O)CN(S(=O)(=O)c2ccc(N3CCCCC3)nc2)CC1C1CCCCC1 (stereo not drawn) [Compound 84, 3-[2-Cyclohexyl-6-oxo-4-(3,4,5,6-tetrahydro-2H-[1,2′]bipyridinyl-5′-sulfonyl)-piperazin-1-yl]-5-phenyl-thiophene-2-carboxylic acid] | 4 | ≤ 100 | –
17 | CCC(C)S(=O)(=O)N1CC(=O)N(c2cc(-c3ccccc3)sc2C(=O)O)C(C2CCCCC2)C1 (stereo not drawn) [Compound 45, 3-[4-(Butane-2-sulfonyl)-2-cyclohexyl-6-oxo-piperazin-1-yl]-5-phenyl-thiophene-2-carboxylic acid] | 4900 | – | 100 to 5000
18 | CN(C)C1CCN(c2ccc(S(=O)(=O)N3CC(=O)N(c4cc(-c5ccccc5)sc4C(=O)O)[C@H](C4CCCCC4)C3)cn2)CC1 [Compound 147, 3-[(R)-2-Cyclohexyl-4-(4-dimethylamino-3,4,5,6-tetrahydro-2H-[1,2′]bipyridinyl-5′-sulfonyl)-6-oxo-piperazin-1-yl]-5-phenyl-thiophene-2-carboxylic acid] | 1 | ≤ 100 | –
19 | CC(C)(C)C#Cc1cc(N2C(=O)[C@@H](O)CC[C@H]2C2CCCCC2)c(C(=O)O)s1 [Compound 322] | 6 | ≤ 100 | –
20 | CC(C)(C)C#Cc1cc(N2C(=O)CN(S(=O)(=O)c3cccc(C#N)c3)C[C@H]2C2CCCCC2)c(C(=O)O)s1 [Compound 259, 3-[(R)-4-(3-Cyano-benzenesulfonyl)-2-cyclohexyl-6-oxo-piperazin-1-yl]-5-(3,3-dimethyl-but-1-ynyl)-thiophene-2-carboxylic acid] | 7 | – | 100 to 5000
21 | CC(C)(C)C#Cc1cc(N2C(=O)CN(S(=O)(=O)c3ccc(F)cc3F)C[C@H]2C2CCCCC2)c(C(=O)O)s1 [Compound 281, 3-[(R)-2-Cyclohexyl-4-(2,4-difluoro-benzenesulfonyl)-6-oxo-piperazin-1-yl]-5-(3,3-dimethyl-but-1-ynyl)-thiophene-2-carboxylic acid] | 3 | ≤ 100 | –
22 | C[C@H]1OCC(=O)N(c2cc(C#CC(C)(C)C)sc2C(=O)O)[C@@H]1C1CCCCC1 [Compound 291, 3-((2R,3R)-3-Cyclohexyl-2-methyl-5-oxo-morpholin-4-yl)-5-(3,3-dimethyl-but-1-ynyl)-thiophene-2-carboxylic acid] | 8 | ≤ 100 | –
23 | COc1ccncc1-c1ccc(S(=O)(=O)N2CC(=O)N(c3cc(-c4ccccc4)sc3C(=O)O)[C@H](C3CCCCC3)C2)cn1 [Compound 204, 3-[(R)-2-Cyclohexyl-4-(4′-methoxy-[2,3′]bipyridinyl-5-sulfonyl)-6-oxo-piperazin-1-yl]-5-phenyl-thiophene-2-carboxylic acid] | 2 | – | 100 to 5000
24 | O=C(O)c1sc(-c2ccccc2)cc1N1C(=O)COCC1C1CCCCC1 (stereo not drawn) [Compound 13, 3-(3-Cyclohexyl-5-oxo-morphoIin-4-yl)-5-phenyl-thiophene-2-carboxylic acid] | 79 | – | 100 to 5000
25 | O=C(O)c1sc(-c2ccccc2)cc1N1C(=O)CN(S(=O)(=O)c2ccc(N3CC4CCC(C3)O4)nc2)C[C@H]1C1CCCCC1 [Compound 216, 3-{(R)-2-Cyclohexyl-4-[6-(8-oxa-3-aza-bicyclo[3.2.1]oct-3-yl)-pyridine-3-sulfonyl]-6-oxo-piperazin-1-yl}-5-phenyl-thiophene-2-carboxylic acid] | 1 | ≤ 100 | –
26 | CC(C)(C)C#Cc1cc(N2C(=O)CN(S(=O)(=O)c3ccc(F)cc3)C[C@H]2C2CCCCC2)c(C(=O)O)s1 [Compound 243, 3-[(R)-2-Cyclohexyl-4-(4-fluoro-benzenesulfonyl)-6-oxo-piperazin-1-yl]-5-(3,3-dimethyl-but-1-ynyl)-thiophene-2-carboxylic acid] | 2 | ≤ 100 | –
27 | CC(C)S(=O)(=O)N1CC(=O)N(c2cc(-c3ccccc3)sc2C(=O)O)C(C2CCCCC2)C1 (stereo not drawn) [Compound 37, 3-[2-Cyclohexyl-6-oxo-4-(propane-2-sulfonyl)-piperazin-1-yl]-5-phenyl-thiophene-2-carboxylic acid] | 72 | – | 100 to 5000

Reference: US9498483B2, “2,3,5-trisubstituted thiophene compounds and uses thereof” (priority 2010, dated 2016)
